The results in this text go back to ChEMBL document CHEMBL1821714, “Discovery, synthesis and SAR of azinyl- and azolylbenzamides antagonists of the P2X₇ receptor” (Bioorg Med Chem Lett, 2011).

The target in data set [1] is T1, P2X purinoceptor 7 (Homo sapiens, UniProt Q99572).
T1 sequence (Q99572 whole entry): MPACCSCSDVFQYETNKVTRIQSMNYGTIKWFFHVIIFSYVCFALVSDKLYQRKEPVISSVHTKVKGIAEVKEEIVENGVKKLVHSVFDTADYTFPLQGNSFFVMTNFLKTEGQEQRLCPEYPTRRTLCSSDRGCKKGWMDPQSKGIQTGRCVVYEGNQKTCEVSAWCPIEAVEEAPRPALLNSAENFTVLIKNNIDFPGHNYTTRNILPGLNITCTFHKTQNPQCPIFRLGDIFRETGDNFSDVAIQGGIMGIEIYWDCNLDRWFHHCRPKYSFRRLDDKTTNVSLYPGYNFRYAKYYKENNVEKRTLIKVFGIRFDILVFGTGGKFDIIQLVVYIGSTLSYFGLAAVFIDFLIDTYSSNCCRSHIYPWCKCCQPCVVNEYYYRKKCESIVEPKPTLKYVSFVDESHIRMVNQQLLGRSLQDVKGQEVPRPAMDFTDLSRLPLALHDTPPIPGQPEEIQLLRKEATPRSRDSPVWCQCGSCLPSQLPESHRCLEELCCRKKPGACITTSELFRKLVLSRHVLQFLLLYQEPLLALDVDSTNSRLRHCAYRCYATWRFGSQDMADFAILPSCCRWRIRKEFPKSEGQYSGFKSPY
Put plainly: Antagonist activity at P2X7R expressed in LPS-activated human monocytes assessed as inhibition of ATP-induced IL1-beta release in presence of low serum concentration. In kind it is functional, cell-based.

Data set [2] has as its target T2, P2X purinoceptor 7 (Homo sapiens) (UniProt Q99572).
T2 sequence (whole entry): T1 sequence (Q99572 whole entry)
The data set can be described thus: Antagonist activity at P2X7R expressed in LPS-activated human monocytes assessed as inhibition of ATP-induced IL1-beta release at 1 uM in presence of low serum concentration. In kind it is functional, cell-based.

Data set [3] addresses T1, P2X purinoceptor 7. Put plainly: Antagonist activity at P2X7R expressed in HEK293 cells assessed as inhibition of ATP-induced YO-PRO-1 uptake. In kind it is functional, cell-based.
Data set [4] has as its target T1, P2X purinoceptor 7. The data set can be described thus: Antagonist activity at P2X7R expressed in LPS-stimulated human whole blood assessed as inhibition of ATP-induced IL1-beta release. In kind it is functional, tissue-based.
A short description of data set [5]: Half life in human liver microsomes.
Data set [6] has as its system MDCK. Put plainly: Permeability from apical to basolateral side of dog MDCK cells expressing MDR1. In kind it is ADME, cell-based, Canis lupus familiaris.
Data set [7] deals with MDCK. Put plainly: Permeability from basolateral to apical side of dog MDCK cells expressing MDR1. In kind it is ADME, cell-based, Canis lupus familiaris.
The nature of data set [8]: Lipophilicity, log P of the compound. In kind it is physicochemical. Conditions: octanol/water.
A short description of data set [9]: Permeability from apical to basolateral side of human Caco2 cells. In kind it is ADME, cell-based. Conditions: Caco-2, read-out: permeability.
The subject of data set [10] is MDCK. The data set can be described thus: Ratio of permeability from basolateral to apical over apical to basolateral side in dog MDCK cells expressing MDR1. In kind it is ADME, cell-based, Canis lupus familiaris.
Data set [11] in a line: Distribution coefficient, log D of the compound. In kind it is physicochemical. Particulars: octanol/water.
Data set [12] in a line: Half life in iv dosed rat. Conditions: in vivo.
Data set [13] in a line: Volume of distribution at steady state in iv dosed rat. Conditions: in vivo.
The nature of data set [14]: Oral bioavailability in rat. Particulars: in vivo.

`O=C(NCCc1ccccc1Cl)c1cc(-c2cccnc2)ccc1Cl`: the half-inhibitory concentration (IC50) on P2X purinoceptor 7 [1] came out at 4800 nM.
With `COc1ccc(-c2ccc(Cl)c(C(=O)NCCc3ccccc3Cl)c2)nn1`, the IC50 at P2X purinoceptor 7 [1] amounted to 490 nM.
Take `O=C(NCCc1ccccc1Cl)c1cc(-c2ccc(C(F)(F)F)cn2)ccc1Cl`: the IC50 on P2X purinoceptor 7 [1] worked out at 4600 nM.
Still for that read-out and setting: then `O=C(NCCc1ccccc1Cl)c1cc(-c2ccc(Cl)cn2)ccc1Cl`, with 460 nM.
For the molecule `COC[C@H](O)Cn1c(=O)cnn(-c2ccc(Cl)c(C(=O)NCC3(O)CCCCCC3)c2)c1=O` [CE-224535], on P2X purinoceptor 7 [1], the IC50 amounted to 1.3 nM.
Take `CC(=O)c1ccc(-c2ccc(Cl)c(C(=O)NCCc3ccccc3Cl)c2)nc1`: the inhibition in [2] was found to be 0%.
Consider `Cc1ccc(-c2ccc(Cl)c(C(=O)NCCc3ccccc3Cl)c2)nn1`, for which the IC50 on P2X purinoceptor 7 [1] is 250 nM.
As to `NC(=O)c1ccc(-c2ccc(Cl)c(C(=O)NCCc3ccccc3Cl)c2)nc1`, at P2X purinoceptor 7 [1], the IC50 stood at 720 nM.
As to `Cc1ccc(-c2ccc(Cl)c(C(=O)NCCc3ccccc3Cl)c2)nc1`, the IC50 on P2X purinoceptor 7 [1] turned out to be 110 nM.
Still for that read-out and setting: then `CC(O)c1ccc(-c2ccc(Cl)c(C(=O)NCCc3ccccc3Cl)c2)nc1` (stereo not drawn), with 668 nM.
As to `Cc1cccnc1-c1ccc(Cl)c(C(=O)NCCc2ccccc2Cl)c1`, in data set [2], the inhibition was 0%.
Regarding `O=C(NCCc1ccccc1Cl)c1cc(-c2ccccn2)ccc1Cl`, at P2X purinoceptor 7 [1], the IC50 came to 1600 nM.
On to `O=C(NCC1(O)CCCCCC1)c1cc(-c2cc[nH]n2)ccc1Cl`, for which the IC50 turned out to be 12 nM at P2X purinoceptor 7 [3] and 610 nM at P2X purinoceptor 7 [4]. The molecule further registered a half-life in data set [5] (liver microsomes) of 0.2 h.
In the case of `COc1ccc(-c2ccc(Cl)c(C(=O)NCC3(O)CCCCCC3)c2)nn1`, the IC50 on P2X purinoceptor 7 [3] was found to be 28 nM; at P2X purinoceptor 7 [4] it was 510 nM. In addition, the half-life in data set [5] (liver microsomes) was found to be 1.28 h.
In turn, `O=C(NCC1(O)CCCCCC1)c1cc(-c2cnoc2)ccc1Cl` came in with a half-life in [5] (microsomes) of 0.372 h. The IC50 at P2X purinoceptor 7 [1] was 240 nM.
`O=C(NCCc1ccccc1Cl)c1cc(-c2n[nH]c(=O)[nH]c2=O)ccc1Cl`: at P2X purinoceptor 7 [1], the IC50 worked out at 1050 nM.
For `O=C(NCC1(O)CCCCCC1)c1cc(-c2ccc(=O)[nH]n2)ccc1Cl`, the IC50 on P2X purinoceptor 7 [3] was found to be 180 nM.
In the case of `Cc1cc(-c2ccc(Cl)c(C(=O)NCC3(O)CCCCCC3)c2)nn1C[C@H](O)CN.Cl`, the values for the half-maximal inhibitory concentration (IC50) at P2X purinoceptor 7 [3], on P2X purinoceptor 7 [4] and on P2X purinoceptor 7 [1] were 3 nM, 10 nM and 7 nM, respectively. The permeability was 0.26 ×10⁻⁶ cm/s in the data set on MDCK [6] and 2.2 ×10⁻⁶ cm/s in the data set with MDCK [7]. The molecule further registered a logP in data set [8] of 2.6. Also, the half-life in data set [5] (liver microsomes) was greater than 2 h. Also, the Papp A→B in data set [9] amounted to 10.5 ×10⁻⁶ cm/s. The Ratio with MDCK [10] is 10.5. The molecule further returned a logD in data set [11] of 1.6.
In the case of `Cn1nccc1-c1ccc(Cl)c(C(=O)NCC2(O)CCCCCC2)c1`, the concentration for half-maximal inhibition (IC50) on P2X purinoceptor 7 [3] is 266 nM; on P2X purinoceptor 7 [1], greater than 1000 nM.
Regarding `Cc1nc(-c2ccc(Cl)c(C(=O)NCC3(O)CCCCCC3)c2)cs1`, the half-maximal inhibitory concentration (IC50) at P2X purinoceptor 7 [3] was determined as 6 nM.
In the case of `N#Cc1ccc(-c2ccc(Cl)c(C(=O)NCCc3ccccc3Cl)c2)nc1`, the inhibition in data set [2] stood at 0%.
Turning to `CCCCC(CC)CNC(=O)c1cc(-n2ncc(=O)[nH]c2=O)ccc1Cl` (stereo not drawn), the IC50 at P2X purinoceptor 7 [1] amounted to 820 nM.
`Cn1ccc(-c2ccc(Cl)c(C(=O)NCC3(O)CCCCCC3)c2)n1`: the figures for the IC50 on P2X purinoceptor 7 [4] and at P2X purinoceptor 7 [1] were 440 nM and 238 nM, respectively. In data set [5] (liver microsomes), the half-life turned out to be 0.0617 h.
Turning to `Cc1cc(-c2ccc(Cl)c(C(=O)NCC3(O)CCCCCC3)c2)nn1C[C@@H](O)CN.Cl`, the IC50 turned out to be 0.5 nM at P2X purinoceptor 7 [3], 3 nM on P2X purinoceptor 7 [4] and 2 nM at P2X purinoceptor 7 [1]. The permeability in the data set with MDCK [6] is listed as 0.26 ×10⁻⁶ cm/s; in the data set with MDCK [7], 2.39 ×10⁻⁶ cm/s. Further, the half-life in [12] was 8.36 h; in data set [5] (liver microsomes), greater than 2 h. Besides, in data set [8], the logP came out at 2.6. Moreover, the Papp A→B in data set [9] amounted to 2.98 ×10⁻⁶ cm/s. Further, the Ratio with MDCK [10] is given as 11.5. Besides, the logD in data set [11] was 1.6. In data set [13], the Vd worked out at 11.7 L/kg. The bioavailability in data set [14] was 9%.
Regarding `O=C(NCC1(O)CCCCCC1)c1cc(-c2c[nH]cn2)ccc1Cl`, in data set [5] (liver microsomes), the half-life was determined as 1.42 h. Besides, the IC50 at P2X purinoceptor 7 [1] was 510 nM.
In the case of `O=C(NCCc1ccccc1Cl)c1cc(-c2ccncc2)ccc1Cl`, the IC50 on P2X purinoceptor 7 [1] was 5200 nM.
Regarding `Cc1cccc(-c2ccc(Cl)c(C(=O)NCCc3ccccc3Cl)c2)n1`, the inhibition in data set [2] was 0%.
With `Cc1ccnc(-c2ccc(Cl)c(C(=O)NCCc3ccccc3Cl)c2)c1`, the inhibition in data set [2] is 0%.
